The values below come from patent US8524703B2, “Bridgehead amine ring-fused indoles and indolines” (AbbVie Inc., priority 2009, dated 2013).

The assay relates to SK-N-SH human neuroblastoma cells. Description: Serum Deprivation/JC-1 Mitochondrial Membrane Potential (MMP) Assay. Type of assay: cell-based. To be noted: for Emax / JC-1 max %: percent maximal JC-1 ratio normalized to peak value for 10 μM dimebolin; for Emax: read-out: JC-1 max %; for EC50: serum deprivation ~18 hours, JC-1 ratio normalized to peak value for 10 μM dimebolin. As to the method:
Tissue Culture: SK-N-SH human neuroblastoma cells obtained from American Type Culture Collection (Rockville, Md.) were maintained in the log phase of growth in Minimal Essential Media (MEM), 10% heat inactivated fetal calf serum and 100 units/mL antibiotic-antimycotic (AA). Cells were cultured and maintained in a humidified incubator at 37° C. under 5% CO2 and 95% air. Cells were trypsinized (0.25%) and subcultured every 3 days and used from 15-18 passages. All cell culture supplies were obtained from Invitrogen (Carlsbad, Calif.).
Serum Deprivation/JC-1 Mitochondrial Membrane Potential (MMP) Assay.
SK-N-SH cells were plated 2-3 days in advance at a concentration of 50,000 cells/well onto collagen coated black-walled 96 well plates (Becton-Dickinson, Bedford, Mass.) in a total volume of 200 μL. On day of experimental treatment, the media containing serum was aspirated from each well and rinsed once with MEM/1% AA without serum. The cells then were incubated overnight in 100 μL of MEM/1% AA (no serum) with and without dimebolin or novel chemical entities overnight for ˜18 hours. The following day, JC-1 dye (5,5′,6,6′-tetrachloro-1,1′,3,3′-tetraethylbenzimidazolcarbocyanide) was diluted 1:10 into MEM media according to the JC-1 Mitochondrial Membrane Potential Assay Kit: (Cayman Chemical Company, Ann Arbor, Mich.) and then 10 μL of the JC-1 dye solution was added to each well. The plates were centrifuged for 5 minutes at 400×g at room temperature followed by 40 minute incubation at 37° C. The plates were washed twice with 200 μL of provided Assay Buffer followed an addition of 100 μL of Assay Buffer to each well. The plates were read with an excitation and emission of 560 nm and 595 nM for red fluorescence and with an excitation and emission of […] and 535 nM for green fluorescence to determine the final JC-1 value taking the red to green fluorescence ratio. This assay is based on change in mitochondrial membrane potential (MMP) using this lipophilic cationic dye, JC-1, by monitoring the changes in the ratio of red to green fluorescence as the MMP depolarizes. This change in MMP reflects the health of the cell with healthy, viable cells have a high JC-1 ratio and high MMP whereas apoptotic, unhealthy cells have a low JC-1 ratio or low MMP.
For the ability of compounds to reverse the stress due to serum deprivation and increase the JC-1 ratio, the percent maximal intensity in JC-1 ratio was normalized to that induced by the peak value for 10 μM dimebolin and plotted against the compound concentration to calculate EC50 values and to control for plate-to-plate variability. Concentration-response data were analyzed using GraphPad Prism (San Diego, Calif.); the EC50 values were derived from a single curve fit to the mean data of n=2-3, in duplicates.
All compounds were dissolved in dimethyl sulfoxide at 10 mM stock solutions and tested at a concentration that the dimethyl sulfoxide levels never exceeded 1%.

In the case of `Fc1cccc(CCc2cccc3c4c([nH]c23)C2CCN(CC2)C4)c1` [Example 16, 7-[2-(3-fluorophenyl)ethyl]-3,4,5,6-tetrahydro-1H-2,5-ethanoazepino[4,3-b]indole], where the note is “Homo sapiens, SK-N-SH”, the Emax is 49% and the concentration giving a half-maximal response (EC50) is over 30 µM.
For `Fc1ccc(/C=C/c2cccc3c4c([nH]c23)C2CCN(CC2)C4)cc1` [Example 10, 7-[(E)-2-(4-fluorophenyl)vinyl]-3,4,5,6-tetrahydro-1H-2,5-ethanoazepino[4,3-b]indole] the same measures were 84% and 4.74 µM.
For `C(=C/c1cccc2c3c([nH]c12)C1CCN(CC1)C3)/c1cncnc1` (single isomer, unassigned) [Example 30, 7-[(Z)-2-(pyrimidin-5-yl)vinyl]-3,4,5,6-tetrahydro-1H-2,5-ethanoazepino[4,3-b]indole] the same measures were 29% and over 30 µM.
Taken in the same sequence, the figures for `c1ccc(COc2cccc3c4c([nH]c23)C2CCN(CC2)C4)cc1` [Example 26, 7-(benzyloxy)-3,4,5,6-tetrahydro-1H-2,5-ethanoazepino[4,3-b]indole] were 494% and 9.81 µM.
For the compound `Cc1ccc(/C=C/c2cccc3c4c([nH]c23)C2CC[N+]([O-])(CC2)C4)cn1` [Example 28, 7-[(E)-2-(6-methylpyridin-3-yl)yinyl]-1,2,3,4,5,6-hexahydro-2,5-ethanoazepino[4,3-b]indole 2-oxide], the JC-1 max % was 50% and the EC50 was over 30 µM.
As for `C(=C\c1cccc2c3c([nH]c12)C1CCN(CC1)C3)/c1ccccn1` [Example 12, 7-[(E)-2-pyridin-2-ylvinyl]-3,4,5,6-tetrahydro-1H-2,5-ethanoazepino[4,3-b]indole], for the setting “Homo sapiens, SK-N-SH”, the Emax was found to be 192% and the 50% effective concentration (EC50) was determined as 3.56 µM.
For `C(=C\c1cccc2c3c([nH]c12)C1CCN(CC1)C3)/c1cncnc1` (single isomer, unassigned) [Example 29, 7-[(E)-2-(pyrimidin-5-yl)vinyl]-3,4,5,6-tetrahydro-1H-2,5-ethanoazepino[4,3-b]indole] the same measures were 54% and 5.33 µM.
For `Cc1ccc(C#Cc2ccc3c4c([nH]c3c2)C2CCN(CC2)C4)cn1` [Example 22, 8-[(6-methylpyridin-3-yl)ethynyl]-3,4,5,6-tetrahydro-1H-2,5-ethanoazepino[4,3-b]indole] the same measures were 185% and 8.66 µM.
Taken in the same sequence, the figures for `C(#Cc1cccc2c3c([nH]c12)C1CCN(CC1)C3)c1cccnc1` [Example 13, 7-(pyridin-3-ylethynyl)-3,4,5,6-tetrahydro-1H-2,5-ethanoazepino[4,3-b]indole] were 142% and 5.17 µM.
With `Cc1ccc(/C=C/c2cccc3c4c([nH]c23)C2CCCN(C4)C2)cn1` (stereo not drawn) [Example 35, 8-[(E)-2-(6-methylpyridin-3-yl)vinyl]-1,3,4,5,6,7-hexahydro-2,6-methanoazocino[4,3-b]indole], where the note is “Homo sapiens, SK-N-SH”, the Emax is 213% and the EC50 was 7.28 µM.
With `Cc1ccc(/C=C/c2cccc3[nH]c4c(c23)CN2CCC4CC2)cn1` [Example 18, 10-[(E)-2-(6-methylpyridin-3-yl)vinyl]-3,4,5,6-tetrahydro-1H-2,5-ethanoazepino[4,3-b]indole], where the note is “Homo sapiens, SK-N-SH”, the Emax turned out to be 173% and the half-maximal effective concentration (EC50) worked out at 3.1 µM.
Taken in the same sequence, the figures for `Cc1ccc(-c2cccc3c4c([nH]c23)C2CCN(CC2)C4)cn1` [Example 37, 7-(6-methylpyridin-3-yl)-3,4,5,6-tetrahydro-1H-2,5-ethanoazepino[4,3-b]indole] were 179% and 8.66 µM.
For `Cc1ccc(CCc2cccc3c4c([nH]c23)C2CCN(CC2)C4)cn1` [Example 2, 7-[2-(6-methylpyridin-3-yl)ethyl]-3,4,5,6-tetrahydro-1H-2,5-ethanoazepino[4,3-b]indole] the same measures were 170% and 5.22 µM.
Taken in the same sequence, the figures for `C(=C\c1cccc2c3c([nH]c12)C1CCN(CC1)C3)/c1ccncc1` [Example 11, 7-[(E)-2-pyridin-4-ylvinyl]-3,4,5,6-tetrahydro-1H-2,5-ethanoazepino[4,3-b]indole] were 171% and 6.73 µM.
Regarding `Fc1cccc(/C=C/c2cccc3c4c([nH]c23)C2CCN(CC2)C4)c1` [Example 15, 7-[(E)-2-(3-fluorophenyl)vinyl]-3,4,5,6-tetrahydro-1H-2,5-ethanoazepino[4,3-b]indole], under “Homo sapiens, SK-N-SH”, the Emax worked out at 44% and the EC50 was over 30 µM.
For `Cc1ccc(C#Cc2cc(F)cc3c4c([nH]c23)C2CCN(CC2)C4)cn1` [Example 24, 9-fluoro-7-[(6-methylpyridin-3-yl)ethynyl]-3,4,5,6-tetrahydro-1H-2,5-ethanoazepino[4,3-b]indole] the same measures were 156% and 5.38 µM.
Taken in the same sequence, the figures for `Cc1ccc(CCc2ccc3[nH]c4c(c3c2)CN2CCC4CC2)cn1` [Example 9, 9-[2-(6-methylpyridin-3-yl)ethyl]-3,4,5,6-tetrahydro-1H-2,5-ethanoazepino[4,3-b]indole] were 110% and 3.94 µM.
As to `c1cc(-c2cncnc2)c2[nH]c3c(c2c1)CN1CCC3CC1` [Example 38, 7-(pyrimidin-5-yl)-3,4,5,6-tetrahydro-1H-2,5-ethanoazepino[4,3-b]indole], where the note is “Homo sapiens, SK-N-SH”, the Emax came out at 76% and the concentration giving a half-maximal response (EC50) came out at 10.5 µM.
For `c1cncc(-c2cccc3c4c([nH]c23)C2CCN(CC2)C4)c1` [Example 39, 7-(pyridin-3-yl)-3,4,5,6-tetrahydro-1H-2,5-ethanoazepino[4,3-b]indole] the same measures were 113% and 10.3 µM.
On to `Cc1ccc(/C=C/c2cccc3c2NC2C4CCN(CC4)CC32)cn1` (stereo not drawn) [Example 36, (cis)-7-[(E)-2-(6-methylpyridin-3-yl)vinyl]-3,4,5,5a,6,10b-hexahydro-1H-2,5-ethanoazepino[4,3-b]indole], for which the JC-1 max % is recorded as 196% and the concentration for a half-maximal effect (EC50) was determined as 6.89 µM.
As to `c1ccc(CCCCCc2cccc3c4c([nH]c23)C2CCN(CC2)C4)cc1` [Example 7, 7-(5-phenylpentyl)-3,4,5,6-tetrahydro-1H-2,5-ethanoazepino[4,3-b]indole], where the note is “Homo sapiens, SK-N-SH”, the Emax worked out at 62% and the EC50 came out at 1.43 µM.
For `c1cc(-c2ccncc2)c2[nH]c3c(c2c1)CN1CCC3CC1` [Example 40, 7-(pyridin-4-yl)-3,4,5,6-tetrahydro-1H-2,5-ethanoazepino[4,3-b]indole] the same measures were 92% and 8.99 µM.
For `Cc1ccc(/C=C/c2cc(F)cc3c4c([nH]c23)C2CCN(CC2)C4)cn1` [Example 25, 9-fluoro-7-[(E)-2-(6-methylpyridin-3-yl)vinyl]-3,4,5,6-tetrahydro-1H-2,5-ethanoazepino[4,3-b]indole] the same measures were 127% and 3.42 µM.
Taken in the same sequence, the figures for `c1ccc2ncc(-c3cccc4c5c([nH]c34)C3CCN(CC3)C5)cc2c1` [Example 41, 7-(quinolin-3-yl)-3,4,5,6-tetrahydro-1H-2,5-ethanoazepino[4,3-b]indole] were 171% and 3.68 µM.
As to `Fc1ccc(/C=C/c2cccc3c4c([nH]c23)C2CCN(CC2)C4)c(F)c1` [Example 14, 7-[(E)-2-(2,4-difluorophenyl)vinyl]-3,4,5,6-tetrahydro-1H-2,5-ethanoazepino[4,3-b]indole], where the note is “Homo sapiens, SK-N-SH”, the Emax worked out at 39% and the EC50 is over 30 µM.
As to `C(=C\c1cccc2c3c([nH]c12)C1CCN(CC1)C3)/c1cccnc1` [Example 34, 7-[(E)-2-pyridin-3-ylvinyl]-3,4,5,6-tetrahydro-1H-2,5-ethanoazepino[4,3-b]indole], where the note is “Homo sapiens, SK-N-SH”, the Emax was 109% and the EC50 worked out at 6.3 µM.
`Cc1ccc(/C=C\c2cccc3c4c([nH]c23)C2CCN(CC2)C4)cn1` [Example 31, 7-[(Z)-2-(6-methylpyridin-3-yl)vinyl]-3,4,5,6-tetrahydro-1H-2,5-ethanoazepino[4,3-b]indole]: for the setting “Homo sapiens, SK-N-SH”, the Emax came out at 120% and the EC50 stood at 7.75 µM.

By EC50 is commonly meant the concentration giving half of the maximal effect.
